From patent publication US8557864B2, “Agent having neurotrophic factor-like activity” (Nagoya Industrial Science Research Institute, priority 2007, dated 2013)

Key:
Type in all cases: in vivo
mice = assay: Novel object recognition test on mice; settings: 100 and 500 μg/kg intraperitoneally, healthy mice, test started after 2 hours
Procedure: A promotion activity of brain functions due to the compound 8 was examined using a novel object recognition test. The novel object recognition test is a method of evaluating memory and learning abilities from behaviors after showing a “familiar object” and a “novel object” to mice, utilizing the fact that the mice take exploration behaviors (behaviors such as coming closer to or smelling an object) when they find the “novel object”.
The compound 8 was dissolved in 0.1% DMSO to adjust a concentration so as to have each dose of 100 and 500 μg/kg and intraperitoneally injected to 6 mice in every administration example each in a dose of 0.25 mL. In a 0 μg/kg weight administration example of a control, 0.25 mL of a phosphoric acid buffer containing 0.1% DMSO was intraperitoneally injected. The compound 8 was administered to mice and the novel object recognition test was performed after 2 hours. That is, a mouse was put in a place where two identical objects were present for 15 minutes to let the mouse memorize the two objects (these two objects will be “familiar objects”). After the elapse of 1 day, an exploration behavior test in which the mouse was put in a place where the “familiar objects and “novel objects” were present was carried out for 10 minutes FIG. 33 show the results. Significance tests were performed in a Student's t-test (*) and a Turkey's test (##). […]

[1] = tested on: mice under chronic mild stress; assay: Tail suspension test comparing compound 8 and fluvoxamine after chronic mild stress; settings: Exp. 2 (1 week after stress); compound 8 500 μg/kg, fluvoxamine 1000 μg/kg intraperitoneally once per day
Procedure: 7-week-old male ddY strain mice fed in one cage for 4 mice were first subjected to forced swimming for 15 minutes in the same manner as stress in Example 2 (behavior test of mice under stress) (1) described in the paragraph [0063] in the specification. Then, stress for 1 week using 3 kinds of cages was regarded as 1 cycle, and the stress was applied for 3 cycles (3 weeks) and chronic mild stress (CMS) was applied. The compound 8 and fluvoxamine were administered to mice immediately after stress in Exp. 1, 1 week after stress in Exp. 2, and 2 weeks after stress in Exp. 3, respectively, and tail suspension tests were carried out on the respective test groups. In each test group, the compound 8 was adjusted in concentration so as to have each of the doses of […] and fluvoxamine was adjusted in concentration so as to have a dose of 1000 μg/kg, by dissolving in 0.1% DMSO, and each dose of the compound 8 and fluvoxamine were intraperitoneally injected to mice once per day from the time immediately after stress. Further, to 7-week-old male ddY strain mice fed in one cage for 4 mice without stress, the compound 8 and fluvoxamine were administered to carry out the tail suspension tests in the same manner as the stressed mice. FIG. 31 show the result. A significance test was performed in a Student's t-test (*). […] “DAEE” denotes the compound 8 and “Flu” denotes fluvoxamine.

[2] = tested on: mice under chronic mild stress; assay: Burying the glass-marbles test after completion of stress; settings: 20 μg/kg and 100 μg/kg; 1 week- and 2 week-administration groups after completion of stress
Procedure: Tips were bedded so as to have a height of 5 cm in a box with […] and 25 glass marbles (1.6 cm in diameter) were placed thereon at 5 cm-interval and behaviors of mice were observed. The number of buried glass marbles was found by counting each glass marble that was buried in ⅔ or more from visual observation from just above after 15 minutes as one count. The test was performed for 3 hours. Since a mouse under stress having an anxiety symptom (condition) takes such a behavior as burying glass marbles, a level of the anxiety symptom can be evaluated from the number of buried glass marbles.
Example 2 is a behavior test in which the compound 8 was administered to a mouse as well as stress was applied and a suppression effect of the compound 8 on depressive and anxiety symptoms of the mouse was examined. On the other hand, the present example is a behavior test in which only stress was applied for 3 weeks without administering the compound 8 and stress was completed and a therapeutic effect of the compound 8 on depressive and anxiety symptoms of a mouse after removing stress was examined. Stress was applied to a mouse in the same manner as in Example 2. […]

CCCCCCC/C=C/C(=O)OCC [Compound 8, trans-2-decenoic acid ethyl ester]
recognition index of novel objects (mice): became high
effect on depressive symptom (immobility time) [1]: had an effect
number of buried glass marbles, stressed vs non-stressed example [2]: no significant difference
